Assay results: patent US8580811B2 (Ligand Pharmaceuticals Incorporated, priority 2005, dated 2013)
Read-outs that look alike come from different tables or passages of the source.

Target: T1, human AR (Homo sapiens, UniProt P10275)
T1 construct: expressed in transfected cells; host or cells: COS-1 cells
T1 sequence (P10275 1-920): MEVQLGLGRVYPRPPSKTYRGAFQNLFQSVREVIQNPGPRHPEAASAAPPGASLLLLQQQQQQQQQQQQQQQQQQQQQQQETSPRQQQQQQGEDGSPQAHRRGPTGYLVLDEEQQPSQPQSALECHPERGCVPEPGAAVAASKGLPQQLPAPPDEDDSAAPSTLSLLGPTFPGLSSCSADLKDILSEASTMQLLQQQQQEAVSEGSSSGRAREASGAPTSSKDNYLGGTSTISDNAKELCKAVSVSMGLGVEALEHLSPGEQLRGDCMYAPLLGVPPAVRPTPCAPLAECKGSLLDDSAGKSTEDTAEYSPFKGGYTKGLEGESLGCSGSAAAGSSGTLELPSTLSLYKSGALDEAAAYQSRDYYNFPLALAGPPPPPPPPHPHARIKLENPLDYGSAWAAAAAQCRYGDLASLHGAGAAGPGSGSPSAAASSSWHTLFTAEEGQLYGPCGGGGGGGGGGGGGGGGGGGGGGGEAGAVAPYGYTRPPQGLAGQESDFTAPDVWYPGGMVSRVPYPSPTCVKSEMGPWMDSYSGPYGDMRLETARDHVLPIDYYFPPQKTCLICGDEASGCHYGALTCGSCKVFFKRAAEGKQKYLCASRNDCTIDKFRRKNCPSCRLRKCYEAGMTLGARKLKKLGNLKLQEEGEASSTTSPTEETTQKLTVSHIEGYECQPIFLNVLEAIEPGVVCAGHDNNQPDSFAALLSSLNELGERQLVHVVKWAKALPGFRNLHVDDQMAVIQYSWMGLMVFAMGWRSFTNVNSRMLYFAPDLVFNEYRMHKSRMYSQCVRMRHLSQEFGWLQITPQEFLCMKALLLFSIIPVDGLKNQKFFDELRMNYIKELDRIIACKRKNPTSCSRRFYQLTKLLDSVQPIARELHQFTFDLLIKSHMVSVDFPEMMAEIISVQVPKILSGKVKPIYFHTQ
Assay: IR Binding Assay: whole cell competitive binding of test compounds against 3H-DHT in COS-1 cells transfected with pRShAR
Method: For the whole cell binding assay, COS-1 cells in 96-well microtiter plates including DMEM-10% FBS were transfected as described above with the following plasmid DNA: pRShAR (2 ng/well), pRS-β-Gal (50 ng/well) and pGEM (48 ng/well). Six hours after transfection, media was removed, the cells were washed with PBS and fresh media was added. The next day, the media was changed to DMEM-serum free to remove any endogenous ligand that might be complexed with the receptor in the cells.
After 24 hours in serum-free media, either a saturation analysis to determine the Kd for tritiated dihydrotestosterone (^3H-DHT) on human AR or a competitive binding assay to evaluate the ability of test compounds to compete with ^3H-DHT for AR was performed. […] For the competitive binding assay, media including 1 nM ^3H-DHT and test compounds in concentrations ranging from 10^−10 to 10^−6 M were added to the cells. Three replicates were used for each sample. After three hours at 37° C., an aliquot of the total binding media at each concentration of ^3H-DHT was removed to estimate the amount of free ^3H-DHT. The remaining media was removed, the cells were washed three times with PBS to remove unbound ligand, and cells were lysed with a Triton X-100-based buffer. The lysates were assayed for amount of bound ^3H-DHT and β-Gal activity using a scintillation counter or spectrophotometer, respectively.
For the saturation analyses, the difference between the total binding and the nonspecific binding, normalized by the β-Gal rate, was defined as specific binding. The specific binding was evaluated by Scatchard analysis to determine the Kd for ^3H-DHT. See e.g., D. Rodbard, “Mathematics and statistics of ligand assays: an illustrated guide” In: J. Langon and J. J. Clapp, eds., Ligand Assay, Masson Publishing U.S.A., Inc., New York, pp. 45-99, (1981), the disclosure of which is herein incorporated by reference. For the competition studies, the data was plotted as the amount of ^3H-DHT (% of control in the absence of test compound) remaining over the range of the dose-response curve for a given compound. […] The Ki values were determined by application of the Cheng-Prusoff equation to the IC50 values, where:
[formula] After correcting for non-specific binding, IC50 values were determined. […] The IC50 value was determined graphically from a log-logit plot of the data. The Ki values were determined by application of the Cheng-Prusoff equation to the IC50 values, the labeled ligand concentration and the Kd of the labeled ligand. see e.g., Cheng, Y. C. and Prusoff, W. H. Biochem. Pharmacol. 22:3099 (1973).

[1] = competition with 1 nM 3H-DHT, transfected COS-1 cells, 3 h at 37° C., Cheng-Prusoff from IC50, read-out: Ki

SMILES	Ki [nM]	Ki [1] [nM]
O=c1cc(C(F)(F)F)c2c(ccc3c2c2c(n3CC(O)C(F)(F)F)CCC2)[nH]1 (racemic) [Compound 246, (±)-3-(3,3,3-Trifluoro-2-hydroxy-propyl)-9-trifluoromethyl-1,2-trimethylene-3,6-dihydro-pyrrolo[3,2-f]quinolin-7-one]	5 to 10	
Cc1c(C)n(CC(F)(F)F)c2cc(F)c3[nH]c(=O)cc(Cl)c3c12 [Compound 195, 9-Chloro-1,2-dimethyl-5-fluoro-3-(2,2,2-trifluoroethyl)-3,6-dihydro-pyrrolo[3,2-f]quinolin-7-one]	< 5	
Cc1c(-c2nccs2)n(CC(F)(F)F)c2ccc3[nH]c(=O)cc(Cl)c3c12 [Compound 252, 9-Chloro-1-methyl-2-(1,3-thiazol-2-yl)-3-(2,2,2-trifluoroethyl)-3,6-dihydro-pyrrolo[3,2-f]-quinolin-7-one]	< 5	
Cc1c(-c2ccccc2)[nH]c2ccc3[nH]c(=O)cc(Cl)c3c12 [Compound 110, 9-Chloro-1-methyl-2-phenyl-3,6-dihydro-pyrrolo[3,2-f]quinolin-7-one]	< 5	
Cc1c(CCCI)c2c3c(Cl)cc(=O)[nH]c3ccc2n1CC(F)(F)C(F)(F)F [Compound 270, 9-Chloro-1-(3-iodopropyl)-2-methyl-3-(2,2,3,3,3-pentafluoropropyl)-3,6-dihydro-pyrrolo[3,2-f]quinolin-7-one]	> 10	
Cc1c(-c2ccccc2)n(CC(F)(F)C(F)(F)F)c2ccc3[nH]c(=O)cc(Cl)c3c12 [Compound 218, 9-Chloro-1-methyl-3-(2,2,3,3,3-pentafluoropropyl)-2-phenyl-3,6-dihydro-pyrrolo[3,2-f]-quinolin-7-one]	< 5	
Cc1c(C)n(C[C@H](O)C(F)(F)F)c2ccc3[nH]c(=O)cc(C(F)(F)F)c3c12 [Compound 245, (−)-1,2-Dimethyl-3-(3,3,3-trifluoro-2-hydroxy-propyl)-9-trifluoromethyl-3,6-dihydro-pyrrolo[3,2-f]-quinolin-7-one]	> 10	
Cc1c(-c2ccccn2)n(C[C@H](O)C(F)(F)F)c2ccc3[nH]c(=O)cc(Cl)c3c12 [Compound 275, (S)-9-Chloro-1-methyl-2-(2-pyridyl)-3-(3,3,3-trifluoro-2-hydroxy-propyl)-3,6-dihydro-pyrrolo[3,2-f]quinolin-7-one]	5 to 10	
CC1Cc2c(ccc3[nH]c(=O)cc(Cl)c23)N1CC(F)(F)F (racemic) [Compound 131, (±)-9-Chloro-2-methyl-3-(2,2,2-trifluoro-ethyl)-1,2,3,6-tetrahydropyrrolo[3,2-f]quinolin-7-one]	> 10	
Cc1c(-c2ccncc2)n(CC(F)(F)C(F)(F)F)c2ccc3[nH]c(=O)cc(Cl)c3c12 [Compound 263, 9-Chloro-1-methyl-3-(2,2,3,3,3-pentafluoropropyl)-2-(4-pyridyl)-3,6-dihydro-pyrrolo[3,2-f]quinolin-7-one]	< 5	
CCC1C(C)c2c(ccc3[nH]c(=O)cc(C(F)(F)F)c23)N1CC(F)(F)C(F)(F)F (racemic) [Compound 179, (±)-2-Ethyl-1-methyl-3-(2,2,3,3,3-pentafluoropropyl)-9-trifluoromethyl-1,2,3,6-tetrahydro-pyrrolo[3,2-f]quinolin-7-one]	< 5	
Cc1c(C(F)(F)C(F)(F)F)n(CC(F)(F)F)c2ccc3[nH]c(=O)cc(Cl)c3c12 [Compound 255, 9-Chloro-1-methyl-2-(pentafluoroethyl)-3-(2,2,2-trifluoroethyl)-3,6-dihydro-pyrrolo[3,2-f]-quinolin-7-one]	< 5	
Cc1c(C)n(CC(F)(F)C(F)(F)F)c2ccc3[nH]c(=O)cc(Cl)c3c12 [Compound 215, 9-Chloro-1,2-dimethyl-3-(2,2,3,3,3-pentafluoropropyl)-3,6-dihydro-pyrrolo[3,2-f]-quinolin-7-one]	< 5	
COc1ccc(-c2[nH]c3ccc4[nH]c(=O)cc(Cl)c4c3c2C)cc1 [Compound 115, 9-Chloro-2-(4-methoxy-phenyl)-1-methyl-3,6-dihydro-pyrrolo[3,2-f]quinolin-7-one]		> 10
CCCc1c(C)[nH]c2ccc3[nH]c(=O)cc(Cl)c3c12 [Compound 124, 9-Chloro-2-methyl-1-propyl-3,6-dihydro-pyrrolo[3,2-f]quinolin-7-one]	> 10	
CC1c2c(ccc3[nH]c(=O)cc(Cl)c23)N(CC(F)(F)F)C1c1ccc(F)cc1F (racemic) [Compound 150, (±)-9-Chloro-2-(2,4-difluorophenyl)-1-methyl-3-(2,2,2-trifluoroethyl)-1,2,3,6-tetrahydropyrrolo-[3,2-f]quinolin-7-one]	> 10	
Cc1c(C)n(C[C@H](O)CO)c2ccc3[nH]c(=O)cc(C(F)(F)F)c3c12 [Compound 295, (S)-3-(2,3-dihydroxypropyl)-1,2-dimethyl-9-trifluoromethyl-3,6-dihydro-pyrrolo[3,2-f]-quinolin-7-one]	> 10	
CCC1c2c(ccc3[nH]c(=O)cc(Cl)c23)N(CC(F)(F)F)C1C (racemic) [Compound 129, (±)-9-Chloro-1-ethyl-2-methyl-3-(2,2,2-trifluoro-ethyl)-1,2,3,6-tetrahydropyrrolo[3,2-f]-quinolin-7-one]	> 10	
CC1c2c(ccc3[nH]c(=O)cc(Cl)c23)N(CC(F)(F)F)C1c1cccc(Cl)c1 (racemic) [Compound 146, (±)-9-Chloro-2-(3-chlorophenyl)-1-methyl-3-(2,2,2-trifluoroethyl)-1,2,3,6-tetrahydro-pyrrolo[3,2-f]quinolin-7-one]	> 10	
Cc1ccc(-c2c(C)c3c4c(Cl)cc(=O)[nH]c4ccc3n2CC(F)(F)F)o1 [Compound 256, 9-Chloro-1-methyl-2-(5-methyl-2-furyl)-3-(2,2,2-trifluoroethyl)-3,6-dihydro-pyrrolo[3,2-f]-quinolin-7-one]		< 5
Cc1c(-c2cccs2)n(C[C@H](O)C(F)(F)F)c2ccc3[nH]c(=O)cc(Cl)c3c12 [Compound 272, (S)-9-Chloro-1-methyl-2-thiophen-2-yl-3-(3,3,3-trifluoro-2-hydroxy-propyl)-3,6-dihydro-pyrrolo[3,2-f]quinolin-7-one]	< 5	
CC1c2c(ccc3[nH]c(=O)cc(Cl)c23)N(CC(F)F)C1C (racemic) [Compound 143, (±)-9-Chloro-3-(2,2-difluoroethyl)-1,2-dimethyl-1,2,3,6-tetrahydro-pyrrolo[3,2-f]quinolin-7-one]	5 to 10	
Cc1c(C)n(CC(F)(F)Cl)c2ccc3[nH]c(=O)cc(C(F)(F)F)c3c12 [Compound 220, 1,2-Dimethyl-3-(2-chloro-2,2-difluoroethyl)-9-trifluoromethyl-3,6-dihydro-pyrrolo[3,2-f]-quinolin-7-one]	< 5	
CC(=O)c1[nH]c2ccc3[nH]c(=O)cc(Cl)c3c2c1C [Compound 121, 2-Acetyl-9-chloro-1-methyl-3,6-dihydro-pyrrolo[3,2-f]quinolin-7-one]		> 10
Cc1[nH]c2ccc3[nH]c(=O)cc(Cl)c3c2c1CC(=O)O [Compound 122, (9-Chloro-2-methyl-7-oxo-6,7-dihydro-3H-pyrrolo[3,2-f]quinolin-1-yl)-acetic acid]	< 5	
